# Assay results reported in patent US10251395B2, “Substituted furano-/thienocycloalkylamino-2-pyrimidine derivatives and use thereof for controlling undesired plant growth” (Bayer CropScience Aktiengesellschaft, priority 2015, dated 2019).
# Legend:
# Assay type in all cases: in vivo
# [1] = tested on: Stellaria media; experiment: Post-emergence herbicidal effect; settings: assessed visually after about 3 weeks vs untreated controls
# Procedure, shortened: (§1)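 Sow in sandy loam; grow in greenhouse 2–3 wk; spray one-leaf plants with WP or EC suspension/emulsion (600–800 L/ha water, 0.2% wetter); hold ~3 wk under optimal conditions; rate visually vs untreated (0–100%).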
# [2] = tested on: Echinochloa crus-galli; experiment: Post-emergence herbicidal effect; settings: assessed visually after about 3 weeks vs untreated controls
# Procedure, shortened: as §1
# [3] = tested on: Setaria viridis; experiment: Post-emergence herbicidal effect; settings: assessed visually after about 3 weeks vs untreated controls
# Procedure, shortened: as §1
# [4] = tested on: Ipomoea purpurea; experiment: Post-emergence herbicidal effect; settings: assessed visually after about 3 weeks vs untreated controls
# Procedure, shortened: as §1
# [5] = tested on: Veronica persica; experiment: Post-emergence herbicidal effect; settings: assessed visually after about 3 weeks vs untreated controls
# Procedure, shortened: as §1
# [6] = tested on: Amaranthus retroflexus; experiment: Post-emergence herbicidal effect; settings: assessed visually after about 3 weeks vs untreated controls
# Procedure, shortened: as §1
# [7] = tested on: Polygonum convolvulus; experiment: Post-emergence herbicidal effect; settings: assessed visually after about 3 weeks vs untreated controls
# Procedure, shortened: as §1
# [8] = tested on: Viola tricolor; experiment: Post-emergence herbicidal effect; settings: assessed visually after about 3 weeks vs untreated controls
# Procedure, shortened: as §1
# [9] = tested on: Avena fatua; experiment: Post-emergence herbicidal effect; settings: 320 g/ha, assessed visually after about 3 weeks vs untreated controls
# Procedure, shortened: as §1
# [10] = tested on: Alopecurus myosuroides; experiment: Post-emergence herbicidal effect; settings: 320 g/ha, assessed visually after about 3 weeks vs untreated controls
# Procedure, shortened: as §1
# [11] = tested on: Abutilon theophrasti; experiment: Post-emergence herbicidal effect; settings: assessed visually after about 3 weeks vs untreated controls
# Procedure, shortened: as §1
# [12] = tested on: Matricaria inodora; experiment: Post-emergence herbicidal effect; settings: assessed visually after about 3 weeks vs untreated controls
# Procedure, shortened: as §1
# [13] = tested on: Stellaria media; experiment: Pre-emergence herbicidal effect; settings: scored visually after 3 weeks
# Procedure, shortened: (§2)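 Pre-em soil-surface spray; sandy loam, seeds covered with soil. WP/EC, aq. suspension/emulsion, 600–800 L/ha, +0.2% wetting agent. GH 3 wk; visual % activity vs untreated (100% = dead).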
# [14] = tested on: Echinochloa crus-galli; experiment: Pre-emergence herbicidal effect; settings: scored visually after 3 weeks
# Procedure, shortened: as §2
# [15] = tested on: Setaria viridis; experiment: Pre-emergence herbicidal effect; settings: scored visually after 3 weeks
# Procedure, shortened: as §2
# [16] = tested on: Veronica persica; experiment: Pre-emergence herbicidal effect; settings: scored visually after 3 weeks
# Procedure, shortened: as §2
# [17] = tested on: Amaranthus retroflexus; experiment: Pre-emergence herbicidal effect; settings: scored visually after 3 weeks
# Procedure, shortened: as §2
# [18] = tested on: Polygonum convolvulus; experiment: Pre-emergence herbicidal effect; settings: scored visually after 3 weeks
# Procedure, shortened: as §2
# [19] = tested on: Viola tricolor; experiment: Pre-emergence herbicidal effect; settings: scored visually after 3 weeks
# Procedure, shortened: as §2
# [20] = tested on: Avena fatua; experiment: Pre-emergence herbicidal effect; settings: scored visually after 3 weeks
# Procedure, shortened: as §2
# [21] = tested on: Lolium multiflorum; experiment: Pre-emergence herbicidal effect; settings: scored visually after 3 weeks
# Procedure, shortened: as §2
# [22] = tested on: Alopecurus myosuroides; experiment: Pre-emergence herbicidal effect; settings: scored visually after 3 weeks
# Procedure, shortened: as §2
# [23] = tested on: Abutilon theophrasti; experiment: Pre-emergence herbicidal effect; settings: Dosage 80 g/ha, scored visually after 3 weeks
# Procedure, shortened: as §2
# [24] = tested on: Matricaria inodora; experiment: Pre-emergence herbicidal effect; settings: scored visually after 3 weeks
# Procedure, shortened: as §2
compound,measurement,setting,value
Cc1cc2c(s1)CCCC2Nc1ncc(C(F)(F)F)c(N)n1 (racemic) [compound 11],post-emergence efficacy STEME,[1]; 80 g/ha,90%
same,post-emergence efficacy STEME,[1]; 320 g/ha,100%
same,post-emergence efficacy ECHCG,[2]; 80 g/ha,100%
same,post-emergence efficacy ECHCG,[2]; 320 g/ha,100%
same,post-emergence efficacy SETVI,[3]; 80 g/ha,90%
same,post-emergence efficacy SETVI,[3]; 320 g/ha,90%
same,post-emergence efficacy PHBPU,[4]; 80 g/ha,90%
same,post-emergence efficacy PHBPU,[4]; 320 g/ha,90%
same,post-emergence efficacy VERPE,[5]; 80 g/ha,80%
same,post-emergence efficacy VERPE,[5]; 320 g/ha,90%
same,post-emergence efficacy AMARE,[6]; 80 g/ha,90%
same,post-emergence efficacy AMARE,[6]; 320 g/ha,90%
same,post-emergence efficacy POLCO,[7]; 80 g/ha,90%
same,post-emergence efficacy POLCO,[7]; 320 g/ha,90%
same,post-emergence efficacy VIOTR,[8]; 80 g/ha,100%
same,post-emergence efficacy VIOTR,[8]; 320 g/ha,100%
same,post-emergence efficacy AVEFA,[9],80%
same,post-emergence efficacy ALOMY,[10],90%
same,post-emergence efficacy ABUTH,[11]; 80 g/ha,100%
same,post-emergence efficacy ABUTH,[11]; 320 g/ha,100%
same,post-emergence efficacy MATIN,[12]; 80 g/ha,90%
same,post-emergence efficacy MATIN,[12]; 320 g/ha,100%
same,STEME pre-emergence efficacy (herbicidal activity),[13]; Dosage 80 g/ha,100%
same,STEME pre-emergence efficacy (herbicidal activity),[13]; Dosage 320 g/ha,100%
same,ECHCG pre-emergence efficacy (herbicidal activity),[14]; Dosage 80 g/ha,100%
same,ECHCG pre-emergence efficacy (herbicidal activity),[14]; Dosage 320 g/ha,100%
same,SETVI pre-emergence efficacy (herbicidal activity),[15]; Dosage 80 g/ha,100%
same,SETVI pre-emergence efficacy (herbicidal activity),[15]; Dosage 320 g/ha,100%
same,VERPE pre-emergence efficacy (herbicidal activity),[16]; Dosage 80 g/ha,100%
same,VERPE pre-emergence efficacy (herbicidal activity),[16]; Dosage 320 g/ha,100%
same,AMARE pre-emergence efficacy (herbicidal activity),[17]; Dosage 80 g/ha,100%
same,AMARE pre-emergence efficacy (herbicidal activity),[17]; Dosage 320 g/ha,100%
same,POLCO pre-emergence efficacy (herbicidal activity),[18]; Dosage 80 g/ha,100%
same,POLCO pre-emergence efficacy (herbicidal activity),[18]; Dosage 320 g/ha,100%
same,VIOTR pre-emergence efficacy (herbicidal activity),[19]; Dosage 80 g/ha,100%
same,VIOTR pre-emergence efficacy (herbicidal activity),[19]; Dosage 320 g/ha,100%
same,AVEFA pre-emergence efficacy (herbicidal activity),[20]; Dosage 80 g/ha,60%
same,AVEFA pre-emergence efficacy (herbicidal activity),[20]; Dosage 320 g/ha,90%
same,LOLMU pre-emergence efficacy (herbicidal activity),[21]; Dosage 80 g/ha,100%
same,LOLMU pre-emergence efficacy (herbicidal activity),[21]; Dosage 320 g/ha,100%
same,ALOMY pre-emergence efficacy (herbicidal activity),[22]; Dosage 80 g/ha,90%
same,ALOMY pre-emergence efficacy (herbicidal activity),[22]; Dosage 320 g/ha,100%
same,ABUTH pre-emergence efficacy (herbicidal activity),[23],100%
same,MATIN pre-emergence efficacy (herbicidal activity),[24]; Dosage 80 g/ha,100%
same,MATIN pre-emergence efficacy (herbicidal activity),[24]; Dosage 320 g/ha,100%
